From patent publication US20080260774A1, “Alpha-galactosyl ceramide analogs and their use as immunotherapies” (priority 2007, published 2008)

Key:
[1] = test system: B16 melanoma; assay: Tumor infiltrating lymphocytes in B16 melanoma by flow cytometry; assay type: in vivo; conditions: day 21; 0.1 μg/mouse, once/week; normalized to DMSO
[2] = test system: TC1 tumor; assay: Tumor infiltrating lymphocytes in lung cancer (TC1) by flow cytometry; assay type: in vivo; conditions: day 21; 0.1 μg/mouse, once/week; normalized to DMSO
[3] = test system: C57BL/6 mice; assay: Expansion of NKT subsets in spleens of C57BL/6 mice; assay type: in vivo; conditions: C57BL/6 Wt, 72 h post IV injection, 0.1 μg per mouse
[4] = test system: Sphingomonas capsulata; assay: Antibacterial efficacy in Sphingomonas capsulata infected mice; assay type: in vivo, mouse; conditions: 50 μg/kg
Description: Sphingomonas capsulata is a common environmental bacterial strain that is found in many places such as the air and water. It can be easily identified on nutrient agar plates because of its yellow colony color. […] Since the antibacterial activities of glycolipid antigens are mediated through the activation of NKT cells by glycolipid bound-CD1-d molecules, evaluation of the antibacterial efficacies using the disease model of Sphingomonas capsulata infection will focus on the impact of the NKT mediated pathway that is activated by glycolipid bindings. Six to eight week old female C57BL/6 mice were injected IP with Sphingomonas capsulate cells. […] Twenty-four hours after bacterial infection, livers were removed from mice and homogenized. Colony formation units (CFU) of Sphingomonas capsulate in liver homogenates were determined by plating diluted samples on nutrient plates. Colonies were counted after incubation for 48 hours at 37° C. […] To confirm the antibacterial efficacies of these α-GalCer analogs, another study was conducted to repeat the study by treating infected mice with 50 μg/kg in the same disease model. […] Six to eight week old female C57BL/6 mice were injected IP with 5×10^8 Sphingomonas capsulate cells. Mice were grouped into treatment and control groups with 4-6 mice per group. Four hours after the infection, mice in the treatment group were injected IP with testing α-GalCer analogs at 50 or 100 μg/kg, and the control group mice were injected with same volumes of PBS. Twenty-four hours after bacterial infection, mice from all groups were sacrificed. Livers were removed from mice and homogenized in 0.9% NaCl, 0.02% Tween 80 using tissue homogenizers. Colony formation units (CFU) of Sphingomonas capsulate in liver homogenates were determined by plating diluted samples on nutrient plates. Colonies were counted after incubation for 48 hours at 37° C.

[5] = test system: FLU-A virus serotype H1N1 (WSN); assay: Cytopathetic effect / virus titer in MDCK cells infected with H1N1 (WSN); assay type: cell-based
Procedure: FIG. 60(A-B) show the cytopathetic effect (CPE) of Madin-Darby canine kidney (MDCK) cells in vitro. MDCK cells were pretreated with vehicle, α-GalCer or one of the α-GalCer analogs C13, C14 or C16 at 10 μg/ml for four hours, followed by infection with FLU-A virus serotype H1N1 (WSN) at 10TCID50.
BALB/c mice were treated via intranasal route with control, α-GalCer (C1) or the α-GalCer analogs C13, C14 or C16 at one hour prior to virus challenge with H1N1 (WSN). […] In general, certain α-GalCer analogs may exert direct anti-viral effects, or act indirectly via immune stimulation. […] MDCK cells were pretreated with vehicle, α-GalCer or one of the α-GalCer analogs C13, C14 or C16 at 10 μg/ml for four hours, followed by infection with FLU-A virus serotype H1N1 (WSN) at 10TCID50.

[6] = test system: BALB/c mice; assay: Mouse serum cytokines/chemokines after IV, SubQ or IM injection; assay type: in vivo
[7] = test system: syngeneic lung cancer (TC1) cells; assay: Lung cancer model in mice (TC1, IV inoculation); assay type: in vivo, mouse; conditions: IV administration
[8] = test system: human monocyte-derived DCs; assay: Maturation of human monocyte-derived dendritic cells
[9] = test system: BALB/c mice; assay: Expansion/activation of mouse splenocyte subpopulations 72 h after injection; assay type: in vivo
[10] = test system: H5 of avian influenza viruses (pHA); assay type: in vivo, mouse; conditions: mouse, in vivo
[11] = test system: human naïve NKTs (CD161^+CD3^+); assay: Cytokine/chemokine secretion by human naïve CD161+CD3+ NKTs co-cultured with autologous immature CD14+ DCs; assay type: cell-based
[12] = test system: naïve CD161^+/CD3^+ NKTs; assay: Human NKT TCR activation (phosphoproteins), glycolipid presented by HeLa, HeLa-CD1d or iDCs, 10 μg/ml; assay type: cell-based; conditions: for intracellular phospho-CD3ε / phospho-CREB / phospho-ERK1/2: 10 μg/ml
[13] = test system: syngeneic breast cancer (4T1); assay: Breast cancer model in mice (4T1, SubQ inoculation); assay type: in vivo, mouse; conditions: SubQ delivery
[14] = test system: FLU-A virus serotype H1N1 (WSN); assay: Influenza virus H1N1 (WSN) infection in BALB/c mice; conditions: mouse, in vivo

SMILES: CCCCCCCCCCCCCC[C@@H](O)[C@@H](O)[C@H](CO[C@H]1O[C@H](CO)[C@H](O)[C@H](O)[C@H]1O)NC(=O)CCCCCCCCCCc1ccc(-c2ccc(F)cc2)cc1 [C30]
- number of tumor infiltrating lymphocytes (CD3+ T, CD8 T, NKs, NKTs) [1]: significantly significant increase in the number of TH1-biased tumor infiltrating lymphocytes in melanoma, as compared with both control and α-GalCer
- number of tumor infiltrating lymphocytes (CD3+ T, CD8 T, NKs, NKTs) [2]: significantly significant increase in the number of TH1-biased tumor infiltrating lymphocytes in lung cancer, as compared with both control and α-GalCer
- total number of NKTs and its two subtypes NKT1 and NKT2 [3]: increase of total number of NKTs
- CFU numbers (in lungs) [4]: significant in comparison to the untreated group

SMILES: CCCCCCCCCCCCCCCCCCCCCCCCCC(=O)N[C@@H](CO[C@H]1O[C@H](CO)[C@H](O)[C@H](O)[C@H]1O)[C@H](O)[C@H](O)CCc1ccccc1 [C13]
- entry/replication of H1N1 virus (virus titer) [5]: slight inhibition of the entry/replication of H1N1 virus in vitro
- IFN-γ/IL-4 ratio (TH1/TH2 bias) ([6]; 2 hours, IV route, compared with C1): less TH2 responses than C1
- serum IL-2, IL-12, MIP-1β and MCP-1 ([6]; IV administration): striking rises in IL-2, IL-12, MIP-1β and MCP-1
- anti-cancer efficacy compared with C1 [7]: significantly greater anti-cancer efficacy than C1
- maturation of human monocyte-derived DCs [8]: promotes maturation of human monocyte-derived DCs
- total and mature DCs ([9]; FIGS. 26B, 28B and 30B, compared with C1): significantly greater rises in total and mature DCs than C1
- CD8^+/CD4^+ ratio ([9]; FIGS. 26H, 28H and 30H): more potent than C1
- splenocyte expansion ([9]; IM administration, 72 hours): greater effects than C1
- expansion of splenocytes ([9]; IV administration, 72 hours): greater potency than C1
- CD4^+ T cells ([9]; SubQ route): more active over control
- CD8^+ T cells ([9]; SubQ route): more activity than C1
- B cell expansion/activation ([9]; mouse, in vivo): significant activities
- CD8^+ T cell expansion/activation ([9]; mouse, in vivo): more active than C1
- NK and NKT expansion/activation ([9]; mouse, in vivo): comparable activities as C1
- expansion/activation of NKs and NKTs ([9]; mouse, in vivo): best capacity for expansion/activation of NKs and NKTs
- adjuvant activities in enhancing the anti-HAc antibody titer [10]: better adjuvant activities than the others in enhancing the antibody titer
- effectiveness as adjuvant [10]: particularly effective as adjuvants
- secretion of IFN-γ ([11]; 10 μg/ml, 18 hour culture, compared with α-GalCer): significantly greater secretion of IFN-γ than α-GalCer
- induction of chemokines ([11]; compared with α-GalCer): striking increase in chemokines such as MIP-11, MCP-1, and IL-8
- IFN/IL-4 ratio (TH1/TH2 bias) ([11]; normalized to DMSO control): more TH1-biased
- TCR activation ([12]; CD1d-dependent, HeLa-CD1d or DCs): stronger in TCR activation than compounds C1 and C17
- intracellular phospho-CD3ε ([12]; presented by DCs): 17.3 folds
- phospho-CREB ([12]; presented by DCs): 158 folds increase
- intracellular phospho-CD3ε ([12]; presented by HeLa-CD1d cells): 7.3 folds of control
- phospho-CREB ([12]; presented by HeLa-CD1d cells): 41 folds expression
- phospho-ERK1/2 ([12]; with DCs): 35 folds
- phospho-ERK1/2 ([12]; with HeLa-CD1d cells): 6.6 folds increase
- effects on survival compared with C1 [13]: did not differ significantly from that of C1
- suppression of tumor size compared with C1 [13]: significantly greater suppression of tumor size than C1
- tumor growth and survival compared to control [13]: able to suppress tumor growth and prolong survival as compared to control
- cumulative proportion of survival [14]: prolonged survival
- survival [14]: significantly enhanced survival
